Reference: patent US20080220103A1, “METHOD FOR TREATING/CONTROLLING/KILLING FUNGI AND BACTERIA ON LIVING ANIMALS” (priority 2005, published 2008)
Values after ≈ are worked out from the molar mass of the structure shown. Where two headings read alike, the source gives them in different places.

Legend:
All dermatophytes [1] = test: Minimum fungicidal concentration, pooled dermatophytes; format: cell-based, E. floccosum, T. rubrum, T. mentagrophytes
Method: (§1) Minimum fungicidal concentration (MFC): The minimum fungicidal concentrations of various agents were determined using the technique described by Canton et al. (Antimicrob Agents Chemother. 2004 8:2477-82). In that method, fungal conidia were collected following growth on potato dextrose agar (PDA) plates and were used to inoculate 96-well plates containing different concentrations of agents. Following incubation at 35° C. for 4 days (for dermatophytes) or 24 hours (for yeast), wells showing no visible growth were cultured to determine the MFC (defined as the lowest concentration of a given agent that kills>99.999% of fungal conidia or spores). The MFC value represents the level of the agent at which spores or conidia were killed.
(§2) In the following Tables, MIC50 and MIC90 are defined as the minimal concentrations of a compound that can inhibit 50% and 90% of the tested organisms, respectively.

E. floccosum [2] = test: MIC, modified CLSI M38A broth dilution; format: cell-based, Epidermophyton floccosum
Method: (§3) Minimum Inhibitory Concentration (MIC): Minimum inhibitory concentrations of synthetic and semisynthetic and natural products against dermatophytes were determined using a modification of the Clinical Laboratory Standards Institute (CLSI, formerly National Committee of Clinical Laboratory Standards, NCCLS) M38A standard method for dermatophytes, while MIC of these agents against Candida species were determined using the CLSI M27-A2 methodology. The method used to determine the MIC against bacteria was based on the CLSI document M7-A7.
(§4) For dermatophytes, serial dilutions of terbinafine, tolnaftate were prepared in a range of 0.004-2 μg/ml, while for miconazole concentrations ranged between 0.015-8 μg/ml. Finally, for essential oils, the concentrations tested were between 0.03-16 μg/ml. The only exception was tea tree oil where dilutions were prepared in a range of 0.0078-4 μg/ml. The MIC was read at 4 days post inoculation and defined as the lowest concentration of an agent to inhibit 80% of fungal growth as compared to the growth control (Table 2).

T. rubrum [3] = test: Minimum fungicidal concentration (Canton et al.); format: cell-based, Trichophyton rubrum; conditions: for MFC: Trichophyton rubrum
Method: as §1

All dermatophytes [4] = test: MIC, modified CLSI M38A, pooled dermatophytes; format: cell-based, E. floccosum, T. rubrum, T. mentagrophytes; conditions: n = 18
Method: as §3, §4, §2

E. floccosum [5] = test: Minimum fungicidal concentration (Canton et al.); format: cell-based, Epidermophyton floccosum; conditions: Epidermophyton floccosum
Method: as §1

T. mentagrophytes [6] = test: Minimum fungicidal concentration (Canton et al.); format: cell-based, Trichophyton mentagrophytes; conditions: Trichophyton mentagrophytes
Method: as §1

C. parapsilosis = test: MIC, CLSI M27-A2; format: cell-based, Candida parapsilosis; conditions: Lodderomyces parapsilosis
Method: as §3
The remaining essential oils were prepared in a dilution range of 0.03-16 μg/ml. For Candida the MIC was read at 24 hours and defined as the lowest concentration to inhibit 50% of fungal growth as compared to the growth control (Table 4).

S. epidermidis = test: MIC, CLSI M7-A7, Mueller-Hinton; format: cell-based; conditions: for MIC: read-out: MIC
Method: as §3
(§5) For bacterial species, the medium used to evaluate the antibacterial activity of agents and essential oils was Mueller-Hinton (Oxoid Ltd., Basingstoke, Hampshire, England). Serial dilutions of miconazole, terbinafine, and tolnaftate were prepared in a range of 0.125-64 μg/ml and serial dilutions of tea tree oil were prepared in a range of 0.0078-4 μg/ml, while those for the rest of the essential oils were prepared in a range 0.031-16 μg/ml.

[7] = tested on: All bacteria (Staphylococcus species); test: MIC, CLSI M7-A7, pooled bacteria; format: cell-based, S. aureus, S. epidermidis; conditions: n = 12
Method: as §3, §5, §2

T. rubrum [8] = test: MIC, modified CLSI M38A broth dilution; format: cell-based, Trichophyton rubrum
Method: as §3, §4

T. mentagrophytes [9] = test: MIC, modified CLSI M38A broth dilution; format: cell-based, Trichophyton mentagrophytes; conditions: for MIC: Trichophyton mentagrophytes
Method: as §3, §4

[10] = Epidermophyton floccosum, E. floccosum, n = 6
[11] = Staphylococcus epidermidis, S. epidermidis, n = 6
[12] = Trichophyton rubrum, T. rubrum, n = 6

**Q.** Which results are given for Clc1ccc(COC(Cn2ccnc2)c2ccc(Cl)cc2Cl)c(Cl)c1 (centres unmarked) [Miconazole, miconazole]?
**A.** MFC (All dermatophytes [1]; All dermatophytes, n = 18, read-out: MFC, row MIC50): 8 µg/mL (≈ 19.2 µM); MFC (All dermatophytes [1]; All dermatophytes, n = 18, read-out: MFC, row MIC90): > 8 µg/mL; MFC (All dermatophytes [1]; all T. mentagrophytes isolates and the majority of T. rubrum and E. floccosum isolates, read-out: MFC): ≥ 8 µg/mL; MIC Range (E. floccosum [2]; E. floccosum, n = 6): 0.06 to 0.125 µg/mL; MIC (E. floccosum [2]; Epidermophyton floccosum, E. floccosum strain 1666): 0.125 µg/mL (≈ 0.3 µM); MIC (E. floccosum [2]; Epidermophyton floccosum, E. floccosum strain 1798): 0.125 µg/mL (≈ 0.3 µM); MIC (E. floccosum [2]; Epidermophyton floccosum, E. floccosum strain 1925): 0.06 µg/mL (≈ 0.144 µM); MIC (E. floccosum [2]; Epidermophyton floccosum, E. floccosum strain 1926): 0.125 µg/mL (≈ 0.3 µM); MIC (E. floccosum [2]; Epidermophyton floccosum, E. floccosum strain 1961): 0.125 µg/mL (≈ 0.3 µM); MIC (E. floccosum [2]; Epidermophyton floccosum, E. floccosum strain 2165): 0.125 µg/mL (≈ 0.3 µM); MIC50 (E. floccosum [2]; [10]): 0.125 µg/mL (≈ 0.3 µM); MIC90 (E. floccosum [2]; [10]): 0.125 µg/mL (≈ 0.3 µM); MFC range (row MIC Range) (T. rubrum [3]; T. rubrum, n = 6): 1 to 8 µg/mL; MFC (T. rubrum [3]; T. rubrum strain 1967, read-out: MFC): 8 µg/mL (≈ 19.2 µM); MFC (T. rubrum [3]; T. rubrum strain 2098, read-out: MFC): 4 µg/mL (≈ 9.61 µM); MFC (T. rubrum [3]; T. rubrum strain 2246, read-out: MFC): 1 µg/mL (≈ 2.4 µM); MFC (T. rubrum [3]; T. rubrum strain 8063, read-out: MFC): 8 µg/mL (≈ 19.2 µM); MFC (T. rubrum [3]; T. rubrum strain 8071, read-out: MFC): 8 µg/mL (≈ 19.2 µM); MFC (T. rubrum [3]; T. rubrum strain 8092, read-out: MFC): 8 µg/mL (≈ 19.2 µM); MFC (T. rubrum [3]; T. rubrum, n = 6, read-out: MFC, row MIC50): 8 µg/mL (≈ 19.2 µM); MFC (T. rubrum [3]; T. rubrum, n = 6, read-out: MFC, row MIC90): 8 µg/mL (≈ 19.2 µM); MIC50 (All dermatophytes [4]): 0.125 µg/mL (≈ 0.3 µM); MIC90 (All dermatophytes [4]): 0.25 µg/mL (≈ 0.601 µM); MIC Range (All dermatophytes [4]): 0.015 to 0.25 µg/mL; MFC (E. floccosum [5]; E. floccosum strain 1666, read-out: MFC): 2 µg/mL (≈ 4.81 µM); MFC (E. floccosum [5]; E. floccosum strain 1798, read-out: MFC): 0.5 µg/mL (≈ 1.2 µM); MFC (E. floccosum [5]; E. floccosum strain 1925, read-out: MFC): 8 µg/mL (≈ 19.2 µM); MFC (E. floccosum [5]; E. floccosum strain 1926, read-out: MFC): > 8 µg/mL; MFC (E. floccosum [5]; E. floccosum strain 1961, read-out: MFC): > 8 µg/mL; MFC (E. floccosum [5]; E. floccosum strain 2165, read-out: MFC): > 8 µg/mL; MFC (E. floccosum [5]; E. floccosum, n = 6, read-out: MFC, row MIC50): 8 µg/mL (≈ 19.2 µM); MFC (E. floccosum [5]; E. floccosum, n = 6, read-out: MFC, row MIC90): > 8 µg/mL; MFC (T. mentagrophytes [6]; T. mentagrophytes strain 2124, read-out: MFC): > 8 µg/mL; MFC (T. mentagrophytes [6]; T. mentagrophytes strain 2125, read-out: MFC): > 8 µg/mL; MFC (T. mentagrophytes [6]; T. mentagrophytes strain 2127, read-out: MFC): > 8 µg/mL; MFC (T. mentagrophytes [6]; T. mentagrophytes strain 2128, read-out: MFC): > 8 µg/mL; MFC (T. mentagrophytes [6]; T. mentagrophytes, n = 6, read-out: MFC, row MIC50): > 8 µg/mL; MFC (T. mentagrophytes [6]; T. mentagrophytes, n = 6, read-out: MFC, row MIC90): > 8 µg/mL; MIC (C. parapsilosis; C. parapsilosis strain 7629): 4 µg/mL (≈ 9.61 µM); MIC (C. parapsilosis; C. parapsilosis strain 7668): 16 µg/mL (≈ 38.4 µM); MIC (C. parapsilosis; C. parapsilosis strain 7672): 8 µg/mL (≈ 19.2 µM); MIC (C. parapsilosis; C. parapsilosis strain 7995): 4 µg/mL (≈ 9.61 µM); MIC (C. parapsilosis; C. parapsilosis strain 8148): > 16 µg/mL; MIC (C. parapsilosis; C. parapsilosis strain 8442): 4 µg/mL (≈ 9.61 µM); MIC50 (C. parapsilosis; C. parapsilosis, n = 6): 4 µg/mL (≈ 9.61 µM); MIC90 (C. parapsilosis; C. parapsilosis, n = 6): 16 µg/mL (≈ 38.4 µM); MIC Range (S. epidermidis; S. epidermidis, n = 6): 0.5 to 1 µg/mL; MIC (S. epidermidis; Staphylococcus epidermidis, S. epidermidis strain 8472): 0.5 µg/mL (≈ 1.2 µM); MIC (S. epidermidis; Staphylococcus epidermidis, S. epidermidis strain 8473): 1 µg/mL (≈ 2.4 µM); MIC (S. epidermidis; Staphylococcus epidermidis, S. epidermidis strain 8474): 0.5 µg/mL (≈ 1.2 µM); MIC (S. epidermidis; Staphylococcus epidermidis, S. epidermidis strain 8475): 1 µg/mL (≈ 2.4 µM); MIC (S. epidermidis; Staphylococcus epidermidis, S. epidermidis strain 8476): 1 µg/mL (≈ 2.4 µM); MIC (S. epidermidis; Staphylococcus epidermidis, S. epidermidis strain 8477): 1 µg/mL (≈ 2.4 µM); MIC50 (S. epidermidis; [11]): 1 µg/mL (≈ 2.4 µM); MIC90 (S. epidermidis; [11]): 1 µg/mL (≈ 2.4 µM); MIC50 ([7]; Staphylococcus): 1 µg/mL (≈ 2.4 µM); MIC90 ([7]; Staphylococcus): 2 µg/mL (≈ 4.81 µM); MIC Range [7]: 0.5 to 2 µg/mL; MIC Range (T. rubrum [8]; T. rubrum, n = 6): 0.125 to 0.25 µg/mL; MIC (T. rubrum [8]; Trichophyton rubrum, T. rubrum strain 1967): 0.125 µg/mL (≈ 0.3 µM); MIC (T. rubrum [8]; Trichophyton rubrum, T. rubrum strain 2098): 0.125 µg/mL (≈ 0.3 µM); MIC (T. rubrum [8]; Trichophyton rubrum, T. rubrum strain 2246): 0.125 µg/mL (≈ 0.3 µM); MIC (T. rubrum [8]; Trichophyton rubrum, T. rubrum strain 8063): 0.125 µg/mL (≈ 0.3 µM); MIC (T. rubrum [8]; Trichophyton rubrum, T. rubrum strain 8071): 0.25 µg/mL (≈ 0.601 µM); MIC (T. rubrum [8]; Trichophyton rubrum, T. rubrum strain 8092): 0.25 µg/mL (≈ 0.601 µM); MIC50 (T. rubrum [8]; [12]): 0.125 µg/mL (≈ 0.3 µM); MIC90 (T. rubrum [8]; [12]): 0.25 µg/mL (≈ 0.601 µM); MIC Range (T. mentagrophytes [9]; T. mentagrophytes, n = 6): 0.015 to 0.25 µg/mL; MIC (T. mentagrophytes [9]; T. mentagrophytes strain 1720): 0.03 µg/mL (≈ 0.0721 µM); MIC (T. mentagrophytes [9]; T. mentagrophytes strain 2124): 0.25 µg/mL (≈ 0.601 µM); MIC (T. mentagrophytes [9]; T. mentagrophytes strain 2125): 0.25 µg/mL (≈ 0.601 µM); MIC (T. mentagrophytes [9]; T. mentagrophytes strain 2126): 0.015 µg/mL (≈ 0.036 µM); MIC (T. mentagrophytes [9]; T. mentagrophytes strain 2127): 0.25 µg/mL (≈ 0.601 µM); MIC (T. mentagrophytes [9]; T. mentagrophytes strain 2128): 0.125 µg/mL (≈ 0.3 µM)
